Measurements reported in ChEMBL document CHEMBL1201862, “PubChem BioAssay data set” (2004).
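Interpolation was linear, between the two tested concentrations surrounding the appropriate level; five concentrations were tested over 48 hours in 96-well plates. The concentration for 50% growth inhibition is given as GI50.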 The source made the active and inactive calls. No stated cut-off is given here; in the data, active = GI50 up to about 1.1 µM and inactive = higher.

Experiments:
Experiment in all cases: growth of human tumour cells (NCI), 48 h
A498 = test system: A498
ACHN = test system: ACHN
CAKI-1 = test system: CAKI-1
CCRF-CEM = test system: CCRF-CEM
HOP-62 = test system: HOP-62
K562 = test system: K562
LOX IMVI = test system: LOX IMVI
NCI-H23 = test system: NCI-H23
NCI/ADR-RES = test system: NCI/ADR-RES
OVCAR-4 = test system: OVCAR-4
PC-3 = test system: PC-3
RPMI-8226 = test system: RPMI-8226
RXF 393 = test system: RXF 393
SF-268 = test system: SF-268
SK-MEL-5 = test system: SK-MEL-5
SN12C = test system: SN12C
SW-620 = test system: SW-620
TK-10 = test system: TK-10
HOP-92 = test system: HOP-92
SF-539 = test system: SF-539

Measured: GI50

NC(Cc1c[nH]c2ccc([N+](=O)[O-])cc12)C(=O)O (centres undefined)
inactive: A498 > 100 µM | ACHN > 100 µM | CAKI-1 > 100 µM | CCRF-CEM > 100 µM | HOP-62 > 100 µM | K562 > 100 µM | LOX IMVI > 100 µM | NCI-H23 > 100 µM | NCI/ADR-RES > 100 µM | OVCAR-4 > 100 µM | PC-3 > 100 µM | RPMI-8226 > 100 µM | RXF 393 > 100 µM | SF-268 > 100 µM | SK-MEL-5 > 100 µM | SN12C > 100 µM | SW-620 > 100 µM | TK-10 > 100 µM

CC(C)c1cc(CN(C)C)c(O)c(C(C)(C)C)c1
inactive: A498 20.7 µM | ACHN 16.8 µM | CAKI-1 23.1 µM | CCRF-CEM 16.4 µM | HOP-62 22.8 µM | LOX IMVI 17.4 µM | NCI-H23 34.7 µM | NCI/ADR-RES 65.3 µM | OVCAR-4 28.8 µM | PC-3 21.6 µM | RPMI-8226 13.9 µM | RXF 393 18.8 µM | SF-268 22 µM | SK-MEL-5 14.9 µM | SN12C 18.9 µM | SW-620 20.2 µM | TK-10 35.1 µM

Oc1[nH]c(Nc2cccc(CC(F)(F)F)c2)nc2ncnc1-2
inactive: A498 > 100 µM | ACHN > 100 µM | CAKI-1 > 100 µM | CCRF-CEM > 100 µM | HOP-62 > 100 µM | HOP-92 > 100 µM | LOX IMVI > 100 µM | NCI-H23 > 100 µM | NCI/ADR-RES > 100 µM | OVCAR-4 > 100 µM | PC-3 > 100 µM | RPMI-8226 > 100 µM | SF-268 > 100 µM | SF-539 > 100 µM | SK-MEL-5 > 100 µM | SN12C > 100 µM | SW-620 > 100 µM | TK-10 > 100 µM

O=C(Nc1ccccc1)OCCN=c1c2ccccc2ccc2ccccc12
inactive: ACHN 20.9 µM | CAKI-1 26.4 µM | CCRF-CEM 18.9 µM | HOP-62 28.2 µM | HOP-92 18.4 µM | K562 14.7 µM | LOX IMVI 20.3 µM | NCI-H23 35.1 µM | NCI/ADR-RES 21.3 µM | OVCAR-4 25.8 µM | PC-3 20.9 µM | RPMI-8226 15.5 µM | RXF 393 23.8 µM | SF-268 34.8 µM | SF-539 19.8 µM | SK-MEL-5 14.1 µM | SN12C 25.5 µM | SW-620 31.9 µM | TK-10 31.4 µM

COc1ccc(/C=C(\C#N)c2nc3ccccc3c(=O)[nH]2)cc1
inactive: ACHN 17.1 µM | CAKI-1 27.8 µM | CCRF-CEM > 100 µM | HOP-62 10.5 µM | HOP-92 12.1 µM | K562 > 100 µM | LOX IMVI 43.4 µM | NCI/ADR-RES 20.3 µM | OVCAR-4 20.3 µM | PC-3 38.7 µM | RPMI-8226 > 100 µM | RXF 393 15.5 µM | SF-268 13.7 µM | SF-539 12.6 µM | SK-MEL-5 19.5 µM | SN12C 33.6 µM | SW-620 50.4 µM | TK-10 23.3 µM

Cc1ccc2c(c1C)CC1(Cc3ccc(C)c(C)c3C1=O)C2=O (centres undefined)
inactive: ACHN 46 µM | CAKI-1 44.2 µM | CCRF-CEM > 100 µM | HOP-92 34 µM | K562 > 100 µM | LOX IMVI > 100 µM | NCI/ADR-RES > 100 µM | OVCAR-4 33.7 µM | PC-3 > 100 µM | RPMI-8226 > 100 µM | RXF 393 17.1 µM | SF-268 > 100 µM | SF-539 28.6 µM | SK-MEL-5 76.9 µM | SN12C > 100 µM | SW-620 > 100 µM | TK-10 29.7 µM

OC1CC2CCCN(CCc3c1[nH]c1ccccc31)C2 (centres undefined)
inactive: A498 > 100 µM | ACHN > 100 µM | CAKI-1 > 100 µM | CCRF-CEM > 100 µM | HOP-92 > 100 µM | K562 > 100 µM | LOX IMVI > 100 µM | NCI-H23 > 100 µM | NCI/ADR-RES > 100 µM | OVCAR-4 > 100 µM | PC-3 > 100 µM | RPMI-8226 > 100 µM | SF-268 > 100 µM | SF-539 > 100 µM | SK-MEL-5 47.3 µM | SN12C > 100 µM | SW-620 > 100 µM | TK-10 > 100 µM

O=C(Nc1ccc2ncccc2c1)c1cc2c(cc1Cl)Sc1nccn1S2(=O)=O
inactive: ACHN 31.2 µM | CAKI-1 22 µM | HOP-62 16.4 µM | HOP-92 27.7 µM | K562 6.31 µM | LOX IMVI 12.9 µM | NCI-H23 15.6 µM | NCI/ADR-RES 19 µM | OVCAR-4 26.2 µM | PC-3 33.6 µM | RPMI-8226 6.85 µM | RXF 393 15.6 µM | SF-268 18.1 µM | SF-539 20 µM | SK-MEL-5 15.3 µM | SN12C 17.5 µM | SW-620 16 µM | TK-10 20.4 µM

CS(=O)(=O)OCCCSCCSCCCOS(C)(=O)=O
inactive: CCRF-CEM > 100 µM | HOP-62 > 100 µM | HOP-92 40.2 µM | K562 > 100 µM | LOX IMVI > 100 µM | NCI-H23 > 100 µM | NCI/ADR-RES > 100 µM | OVCAR-4 > 100 µM | PC-3 > 100 µM | SF-268 > 100 µM | SF-539 > 100 µM | SK-MEL-5 > 100 µM | SN12C > 100 µM | SW-620 > 100 µM | TK-10 > 100 µM

CC(=O)/C=c1\[nH]/c(=C\C=C\c2ccccc2)c(=O)n1/C=C1\C(=O)Oc2ccccc2C1=O
inactive: A498 15.3 µM | ACHN > 100 µM | CAKI-1 > 100 µM | CCRF-CEM > 100 µM | HOP-92 > 100 µM | K562 > 100 µM | LOX IMVI > 100 µM | NCI-H23 > 100 µM | NCI/ADR-RES > 100 µM | OVCAR-4 > 100 µM | PC-3 > 100 µM | RPMI-8226 > 100 µM | SF-268 > 100 µM | SF-539 > 100 µM | SK-MEL-5 > 100 µM | SW-620 > 100 µM | TK-10 > 100 µM

CC#CC#C/C=C1/C=CC2(CCCCO2)O1 (centres undefined)
inactive: A498 > 100 µM | CAKI-1 > 100 µM | CCRF-CEM 21.2 µM | HOP-92 > 100 µM | K562 40.2 µM | LOX IMVI 90.2 µM | NCI-H23 > 100 µM | NCI/ADR-RES > 100 µM | OVCAR-4 > 100 µM | PC-3 > 100 µM | SF-268 > 100 µM | SF-539 > 100 µM | SK-MEL-5 > 100 µM | SN12C > 100 µM | SW-620 > 100 µM | TK-10 > 100 µM

Cn1/c(=N\N=C(\CNCCO)[C@@H](O)[C@@H]2OC(c3ccccc3)OC[C@H]2O)sc2ccccc21 (some centres undefined)
inactive: ACHN 19.9 µM | CAKI-1 15.6 µM | CCRF-CEM 17.8 µM | HOP-62 17.8 µM | HOP-92 11 µM | K562 14.8 µM | LOX IMVI 15.1 µM | NCI-H23 20 µM | NCI/ADR-RES 50.7 µM | OVCAR-4 23.9 µM | PC-3 16.6 µM | RXF 393 16.1 µM | SF-268 15.5 µM | SF-539 17.5 µM | SK-MEL-5 14.9 µM | SN12C 17.9 µM | SW-620 18 µM | TK-10 18.5 µM

Cc1cn(C(=O)NC23CC4CC(CC(C4)C2)C3)c(=O)[nH]c1=O
inactive: ACHN 27.9 µM | CAKI-1 32.2 µM | CCRF-CEM 25.6 µM | HOP-62 > 100 µM | HOP-92 51.6 µM | K562 31.6 µM | LOX IMVI 27.5 µM | NCI-H23 32.1 µM | NCI/ADR-RES 27.4 µM | OVCAR-4 38.7 µM | PC-3 35 µM | RPMI-8226 25.5 µM | RXF 393 21.6 µM | SF-268 37.5 µM | SF-539 46.2 µM | SK-MEL-5 38.3 µM | SN12C 25.4 µM | SW-620 40.6 µM | TK-10 32.8 µM

Cc1cc(C)nc(NC(P(=O)(O)O)P(=O)(O)O)n1
inactive: ACHN > 100 µM | CAKI-1 > 100 µM | HOP-62 > 100 µM | LOX IMVI > 100 µM | NCI-H23 > 100 µM | NCI/ADR-RES > 100 µM | PC-3 > 100 µM | RXF 393 > 100 µM | SF-268 > 100 µM | SF-539 > 100 µM | SK-MEL-5 > 100 µM | TK-10 > 100 µM

C[C@H]1[C@H](C)CC[C@]2(C)CC[C@]3(C)C(=C[C@@H](O)[C@@H]4[C@@]5(C)[C@H](O)[C@@H](O)[C@H](O)C(C)(C)[C@@H]5CC[C@]43C)[C@H]12
inactive: A498 > 100 µM | ACHN > 100 µM | CAKI-1 > 100 µM | CCRF-CEM > 100 µM | HOP-62 > 100 µM | K562 > 100 µM | LOX IMVI > 100 µM | NCI-H23 > 100 µM | NCI/ADR-RES > 100 µM | PC-3 > 100 µM | RPMI-8226 55.6 µM | SF-268 > 100 µM | SF-539 > 100 µM | SK-MEL-5 > 100 µM | SN12C > 100 µM | SW-620 > 100 µM

Nc1ccc(C(=O)O)cc1 [AMINOBENZOIC ACID]
inactive: ACHN > 100 µM | CAKI-1 > 100 µM | CCRF-CEM > 100 µM | HOP-62 > 100 µM | HOP-92 > 100 µM | K562 > 100 µM | LOX IMVI > 100 µM | NCI-H23 > 100 µM | NCI/ADR-RES > 100 µM | OVCAR-4 > 100 µM | PC-3 > 100 µM | RPMI-8226 > 100 µM | SF-268 > 100 µM | SF-539 > 100 µM | SK-MEL-5 > 100 µM | SN12C 28.7 µM | SW-620 > 100 µM | TK-10 > 100 µM
